Assay results reported in US9067974B2, “Polymyxin derivatives and uses thereof” (priority 2006, dated 2015).
Read-outs that look alike come from different tables or passages of the source.

Experiments:
[1] = tested on: Ac. baumannii ATCC19606; test: E-test MIC of antibiotics on Mueller-Hinton agar with or without NAB7061 (4 μg/ml); sensitization factor = MIC ratio absence/presence; assay type: cell-based; settings: Acinetobacter baumannii, NAB 7061 0 μg/ml, A. baumannii ATCC19606
Protocol: (§1) MICs were determined by using E-strips (Biodisk Ltd., Solna, Sweden) according to the manufacturer's instructions.
(§2) The strains originated from ATCC (11 strains), CCUG (11 strains), and NCTC (The National Collection of Type Cultures, Colindale, U.K.; 2 strains). Eight strains (the F-strains) were purchased from Mobidiag Ltd., Helsinki, Finland. The source of E. coli IH3080 has been given in Example 2. Sensitization factor was defined as in Example 7.
(§3) Sensitization factor was defined as in Example 7. NAB7061 sensitized both carbapenem-resistant strains (F263, F264) to both carbapenems by a factor ≧4.

[2] = tested on: Ac. baumannii F263; test: as above; assay type: cell-based; settings: Acinetobacter baumannii, NAB 7061 0 μg/ml, A. baumannii F263
Protocol: as §1, §2, §3

[3] = tested on: Ac. baumannii F264; test: as above; assay type: cell-based; settings: Acinetobacter baumannii, NAB 7061 0 μg/ml, A. baumannii F264
Protocol: as §1, §2, §3

[4] = tested on: E. coli IH3080 (K1:O18); test: Experimental E. coli peritonitis model in mice; assay type: in vivo; settings: 5 mg/kg subcutaneous
Protocol: A suspension of E. coli IH3080 (K1:O18) in saline (0.9% NaCl) was prepared from an overnight culture on a blood agar plate (Statens Serum Institut, Copenhagen, Denmark). All mice (female NMR1 from Harlan Scandinavia, Allerød, Denmark; weight, 25-30 g) were inoculated intraperitoneally with 0.5 ml of the suspension containing 0.96×10^6 CFU per ml in the lateral lower quadrant of the abdomen. At 1 h, the CFU count was determined from three mice and the remaining mice (four mice per group) were treated with a subcutaneous injection of 0.2 ml of erythromycin solution in saline (corresponding to 5 mg/kg body weight) or NAB7061 solution in saline (corresponding to 5 mg/kg body weight), or both erythromycin and NAB7061 (corresponding to 5 mg/kg body weight of both drugs; given at two separate sites). Control group received two 0.2 ml injections of saline. At 4.5 h postinfection, all mice were anaesthetized with CO2 and sacrificed. Sterile saline (2 ml) was injected intraperitoneally and the abdomen was gently massaged before it was opened and the fluid sampled. Appropriate dilutions of the fluid were plated on blood agar plates, the plates were incubated overnight, and the colonies were counted.

[5] = molecular target: brush-border membrane (BBM) from the renal cortex; test: Inhibition of [3H] gentamycin binding to brush-border membrane vesicles; parameters: species or system rats; settings: 20 μM [3H] gentamycin; 60 min at 4° C.; rat renal cortex BBM vesicles
From the text: The binding of the compounds according to this invention to isolated brush-border membrane (BBM) from the renal cortex can be measured indirectly by measuring their ability to inhibit the binding of radiolabelled gentamycin to BBM. Accordingly, the compounds according to this invention that have less affinity to BBM than for example polymyxin B inhibit the binding of radiolabelled gentamycin to a lesser degree than does polymyxin B.
BBM was isolated from the renal cortex of male albino rats by using the Mg^2+/EGTA precipitation technique as described by Nagai et al. (2006). The binding of gentamycin was measured, according to the method described by Nagai et al. (2006) by incubating BBM vesicles (20 μl) in 10 mM HEPES (pH 7.5) with 100 mM mannitol in the presence of 20 μM [^3H] gentamycin (Amersham Biosciences Inc., Buckinghamshire, U.K.) with or without the compound to be tested or a positive control. After an incubation of 60 min at 4° C., 1 ml of ice-cold buffer described above was added, and the mixture was filtered through a Millipore filter (0.45 μm; HAWP). The filter was washed with the buffer and the radioactivity remaining in the filter was measured by using a liquid scintillation counter. The IC50 values were determined as in Nagai et al. (2006) using the Hill equation.

[6] = tested on: E. coli IH3080 (K1:O18); test: Well diffusion growth inhibition on LB agar plates (direct antibacterial activity); assay type: cell-based, Escherichia coli
Procedure, shortened: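 Growth inhibition of encapsulated E. coli IH3080 (K1:O18) was measured by well diffusion on LB agar plates. A suspension of about 10^8 cells/ml in 0.9% NaCl, made from an overnight LB agar culture, was spread over the plates and the excess removed. Once dry, five 2 mm wells were drilled per plate and test solutions added, with 0.9% NaCl as control. After 18 h at 37° C, inhibition zone diameters were measured and converted to surface areas in square mm.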

[7] = tested on: Acinetobacter baumannii ATCC 19606; test: as above; assay type: cell-based; settings: A. baumannii ATCC 19606
Procedure, shortened: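 Direct antibacterial activity against Acinetobacter baumannii ATCC 19606 was measured by agar well diffusion on LB plates. The plates were flooded with a suspension of approx. 10^8 cells/ml in 0.9% NaCl, and the excess was removed. Once the surface dried, five wells of 2 mm diameter were drilled per plate. The wells were filled with test compound dissolved in 0.9% NaCl, with plain 0.9% NaCl as control. After 18 h at 37° C., inhibition zone diameters were measured and converted to growth inhibition areas in square mm.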

[8] = tested on: Pseudomonas aeruginosa ATCC 27853; test: as above; assay type: cell-based; settings: Ps. aeruginosa ATCC 27853
Procedure, shortened: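 Pseudomonas aeruginosa ATCC 27853 was tested for direct antibacterial susceptibility by agar well diffusion. A suspension of about 10^8 cells/ml in 0.9% NaCl was spread over LB agar and the excess removed. After drying, 2 mm wells were drilled and filled with compound dissolved in 0.9% NaCl, with NaCl alone as control. Plates were incubated 18 h at 37° C, and inhibition zone diameters were measured and converted to areas in square mm.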

[9] = tested on: E. coli IH3080; test: Sensitization to rifampin: well diffusion growth inhibition on LB plates containing rifampin; assay type: cell-based, Escherichia coli; settings: 4 μg of compound
[10] = Two-week intravenous toxicity study in young rats; assay type: in vivo
Protocol: Toxicity in young rats (weighing approx. 150 g in the beginning of the study) was determined by administering doses (1, 2, 4, 8, 16, and 32 mg/kg per day) of NAB7061 as well as the control compound polymyxin B intravenously twice (2) a day for two weeks. A group of ten (10) rats was studied for each dosis regimen. Clinical observations were made daily, the body weight measured twice weekly, and the food consumption twice weekly. In the end of week 2, all animals were sacrificed.
Histopathology of kidneys was performed for each animals and histopathology of all tissues was performed in three high-dose groups receiving NAB7061.

[11] = tested on: E. coli; settings: Sakura et al. 2004; cited from earlier work

For `C[C@@H](O)[C@H]1C(=O)N2C(C(=O)O)=C(S[C@@H]3CN[C@H](C(=O)N(C)C)C3)[C@H](C)[C@H]12` [meropenem, reference compound], the MIC ([1]; read-out: MIC of meropenem) was 1.5 µg/mL, the MIC ([2]; read-out: MIC of meropenem) was greater than 32 µg/mL and the MIC ([3]; read-out: MIC of meropenem) was 32 µg/mL.

With `C[C@@H](O)[C@H]1C(=O)N2C(C(=O)O)=C(SCCN=CN)C[C@H]12` [imipenem, reference compound] the MIC ([1]; read-out: MIC of imipenem) was 0.38 µg/mL, the MIC ([2]; read-out: MIC of imipenem) was greater than 32 µg/mL and the MIC ([3]; read-out: MIC of imipenem) was 24 µg/mL.

For `CC[C@H]1OC(=O)[C@H](C)[C@@H](O[C@H]2C[C@@](C)(OC)[C@@H](O)[C@H](C)O2)[C@H](C)[C@@H](O[C@@H]2O[C@H](C)C[C@H](N(C)C)[C@H]2O)[C@](C)(O)C[C@@H](C)C(=O)[C@H](C)[C@@H](O)[C@]1(C)O` [erythromycin], the “CFU counts in peritoneal fluid” value ([4]; 4.5 h postinfection ([…] after the treatment)) was 8.9 (±6.4)×10^6 per ml and the “Factor of increase of the bacterial count” value ([4]; from 1 h to 4.5 h postinfection) was 12.

Work on gentamycin [unlabelled gentamycin] yielded an IC50 [5] of 90.2 µM.

For “MO(H)A-XTX-cy[XXFLXXT], SEQ ID NO:1; commercially available polymyxin B is a mixture [reference compound]”, the “Antibacterial activity (growth inhibition area around a well)” value ([6]; 4 μg of compound per well) was 79 square millimeters, the “Antibacterial activity (growth inhibition area around a well)” value ([6]; 10 μg of compound per well) was 133 square millimeters and the “Antibacterial activity (growth inhibition area around a well)” value ([7]; 4 μg per well) was 113 square millimeters. For the same molecule, the “Antibacterial activity (growth inhibition area around a well)” value ([7]; 10 μg per well) was 154 square millimeters, the “Antibacterial activity (growth inhibition area around a well)” value ([8]; 4 μg per well) was 95 square millimeters and the “Antibacterial activity (growth inhibition area around a well)” value ([8]; 10 μg per well) was 133 square millimeters. For the same molecule, the “Antibacterial activity in the presence of rifampin (growth inhibition area around a well)” value ([9]; rifampin 0 μg/ml) was 79 square millimeters, the “Antibacterial activity in the presence of rifampin (growth inhibition area around a well)” value ([9]; rifampin 0.1 μg/ml) was 95 square millimeters and the “Antibacterial activity in the presence of rifampin (growth inhibition area around a well)” value ([9]; rifampin 1.0 μg/ml) was 104 square millimeters. For the same molecule, the IC50 [5] was 39.3 µM, the “Rise of blood urea nitrogen (BUN) versus control or low dose group” value ([10]; rat, in vivo, 16 mg/kg/day) was 15% and the “Lowest dose that negatively influenced the body weight gain” value ([10]; rat, in vivo, iv) was 1 mg/kg per day. For the same molecule, the Mortality ([10]; rats, 32 mg/kg per day intravenously for two weeks) was 100%.

For “octanoyl polymyxin B heptapeptide [Octanoyl PMBH, reference compound]”, the “Antibacterial activity (growth inhibition area around a well)” value ([6]; 4 μg of compound per well) was 0 square millimeters, the “Antibacterial activity (growth inhibition area around a well)” value ([6]; 10 μg of compound per well) was 0 square millimeters and the “Antibacterial activity in the presence of rifampin (growth inhibition area around a well)” value ([9]; rifampin 0 μg/ml) was 0 square millimeters. For the same molecule, the “Antibacterial activity in the presence of rifampin (growth inhibition area around a well)” value ([9]; rifampin 0.1 μg/ml) was 0 square millimeters, the “Antibacterial activity in the presence of rifampin (growth inhibition area around a well)” value ([9]; rifampin 1.0 μg/ml) was 38 square millimeters and the “Concentration needed to inhibit the growth of bacteria” value [11] was 128 µg/mL.
